Results: US6004749A, “Method for identifying compounds affecting RNA/RNA binding protein interactions” (Message Pharmaceuticals, priority 1997, dated 1999)
Entries after “also recorded” stand apart in the source; their conditions may differ. Blank lines part the entries; values can stand above or below the compound they belong to.

Legend:
[1] = test system: AUUUA RNA / RNA binding protein (K562 extract); test: High throughput filter binding assay, 32P-labeled AUUUA RNA with K562 protein extract
Excerpt: FIG. 7 is a graph of the amount of radioactively labeled RNA retained on a filter (expressed in percent of the amount of RNA retained on a filter in a reference binding solution) following loading of various binding solutions. All of the binding solutions contained radioactively labeled AUUUA RNA either alone or including various other components. The first column represents a binding solution without RNA binding protein. The remaining columns represent binding solution containing RNA binding protein (K562 extract). Columns 3 through 8 correspond to binding solutions including the indicated test compound.
(§1) All binding reactions are performed in 96-well polystyrene plates in a final volume of 10 or 100 μl. The assays were constituted and performed as described below. Specifically, assays were performed by (1) forming a binding solution including RNA molecules, 7.5 mM BTP at pH 8.5, 10 mM KCl, 5 mM MgCl2, 0.2 mM DTT, and 10% glycerol, (2) heating the binding solution to denature the RNA molecules, (3) cooling the binding solution, (4) adding RNA binding proteins to the binding solution, (5) loading the binding solution onto a filter, and (6) detecting the amount RNA retained on the filter. It is preferred that the samples be loaded on to a filter of either pure nitrocellulose or a mixed cellulose ester (MCA). It is also preferred that the filters have a 0.2μ pore size, although filters with a 0.45μ pore size will also bind the RNA/RNA binding protein complex. It is preferred that, prior to loading the binding solution onto a filter, the volume is increased. For this purpose, it is preferred that the dilution solution has the same buffer components as the binding solution except lacking the density agent. For a 10 μl volume it is preferred that the final volume be about 100 μl by addition of 1× binding buffer. It is also preferred that the binding solution be loaded onto the filter under vacuum. It is also preferred that the filter is washed twice prior to detecting the amount of RNA retained on the filter. Preferably the wash solution had the same composition as the dilution solution. However, TE (pH 8.0), PBS, or TCA can also be used as wash solutions. In most of the assays described below, the RNA molecules were labeled with ^32 P.
The library was initially screened at 10 μM against ^32 P-labeled AUUUA RNA. Several methods of introducing the compounds into the binding reaction were tested. Initially the compounds were coincubated with the RNA and protein, producing modest results. Next, preincubation with either the protein extract or the RNA was tried with improved results.
Seventeen compounds were chosen for further analysis at 100 nM, 1 μM and 10 μM using both AUUUA and IRE RNAs based on the results from four screening efforts (Exps. 29-31, 33). Table 2 summarizes the results from these compounds at 10 μM. The results are also shown graphically in FIG. 7. […] Compounds D9 and H2, chosen as negative controls from the initial screening, continued to have no effect in the dose dependent screen (Exp. 33) and were identified as vehicle controls.

TNF-α production = conditions: previously shown; cited from earlier work
[2] = test system: IRE RNA / RNA binding protein (K562 protein extract); test: Filter binding assay, IRE RNA with K562 protein extract; conditions: hemin 1 to 100 μM; FeCl3 1 μM to 1 mM; desferroxiamine 1 μM to 1 mM
Excerpt: FIG. 6 is a graph of the amount of radioactively labeled RNA retained on a filter (expressed in percent of the amount of RNA retained on a filter in a reference binding solution) following loading of various binding solutions. All of the binding solutions contained radioactively labeled IRE RNA either alone or including various other components. The first column represents a binding solution without RNA binding protein. The remaining columns represent binding solutions containing RNA binding protein (K562 extract). […] Desferal and des indicate that the binding solutions included the indicated amount of desferroxiamine as a test compound.
FIG. 8 is a graph of the amount of radioactively labeled RNA retained on a filter (expressed in percent of the amount of RNA retained on a filter in a reference binding solution) following loading of various binding solutions. Alternate columns correspond to binding solutions containing radioactively labeled AUUUA RNA or IRE RNA, either alone or including various other components. The first two column represents binding solutions without RNA binding protein. The remaining columns represent binding solution containing RNA binding protein (K562 extract). Columns 5 through 40 correspond to binding solutions including the indicated amount of the indicated test compound.
All binding reactions are performed in 96-well polystyrene plates in a final volume of 10 or 100 μl. The assays were constituted and performed as described below. […]
Binding assays were performed with wild-type IRE RNA and K562 protein extract in the presence of sources of iron or iron chelators to determine the ability of the filter assay to detect the modulation of binding interactions by small molecules. […] The reactions were analyzed by gel shifts to visualize the results of the filter assay.

[3] = test system: TNF-α 3' untranslated region / human cell RBP's; test: High throughput screening assay, TNF-α 3' untranslated region with total protein extract; type: binding; conditions: TNF-α 3' UTR; for effect on TNF-α RNA/RBP interaction, in words: total protein extract; for EC50: read-out: EC50 on in vitro binding
Method: FIG. 9A is a graph of the level of RNA/RBP interactions (between the TNF-α 3' untranslated region and human cell RBP's) in the presence or absence of test compounds. […] The remaining columns include RNA plus extract in the presence of specific compounds.
as §1
This example describes identification of compounds which either increase or decrease the binding interaction between a site within an RNA molecule which interacts with an RBP. This example makes use of a total protein extract which allows identification of compounds that modulate interactions without the need for identification of the specific RBP(s) involved.

[4] = test system: iron response element RNA/RBP interaction; test: Control assay using the iron response element (Example 4); type: binding; conditions: increasing concentrations; unrelated RNA specificity control
[5] = compound 10 μM, RNA & K562 = 100.00

Avg. % (labeled AUUUA RNA retained on filter, average of Experiments #33, #31, #30, #29) [1, 5]: 111.00% | Labeled AUUUA RNA retained on filter, percent of RNA & K562 control, Experiment #29 [1, 5]: 114.53% | Labeled AUUUA RNA retained on filter, percent of RNA & K562 control, Experiment #30 [1, 5]: 66.94% | Labeled AUUUA RNA retained on filter, percent of RNA & K562 control, Experiment #31 [1, 5]: 127.28% | Labeled AUUUA RNA retained on filter, percent of RNA & K562 control, Experiment #33 [1, 5]: 135.24%
Compound: CC(=NNC(=N)N)c1cc(NC(=O)CCCCCCCCC(=O)Nc2cc(C(C)=NNC(=N)N)cc(C(C)=NNC(=N)N)c2)cc(C(C)=NNC(=N)N)c1 [Compound G10, CNI-1493]
effect on counts (AUUUA RNA binding), in words ([1]; 10 μM, AUUUA RNA): substantial increase in counts in 3 of the 4 experiments | effect on TNF-α production, in words (TNF-α production): post-transcriptionally inhibit TNF-α production

Compound: CC(=O)N(O)CCCCCNC(=O)CCC(=O)N(O)CCCCCNC(=O)CCC(=O)N(O)CCCCCN [Desferroxiamine, desferroxiamine]
modulation of IRE/protein binding by iron sources or iron chelator, in words [2]: did not change the amount IRE/protein complex formed

Compound: [Cl][Fe]([Cl])[Cl] [FeCl3]
modulation of IRE/protein binding by iron sources or iron chelator, in words [2]: concentration-dependent inhibition of binding

Compound: O=[N+]([O-])c1ccc(C(Cl)=NCCCN=Cc2ccc3c(c2)OCO3)cc1 [SYM 1301]
effect on TNF-α RNA/RBP interaction, in words [3]: no effect

Compound: Cc1c(CCN)c2c3n1CCCC3CCC2 (centres unmarked) [SYM 1405]
inhibition of binding [3]: about 40% | effect on TNF-α RNA/RBP interaction, in words [3]: inhibited binding of TNF-α in a concentration-dependent manner; also recorded: concentration-dependent inhibition | EC50 [3]: ~2 µM | effect on iron response element binding, in words [4]: little effect on the iron response element

potentiation of binding [3]: approximately 3 fold | EC50 [3]: 23 µM
Compound: CC(=NNC(=N)N)c1cc(NC(=O)CCCCCCC(=O)Nc2cc(C(C)=NNC(=N)N)cc(C(C)=NNC(=N)N)c2)cc(C(C)=NNC(=N)N)c1 [SYM 1710]

Compound: hemin
modulation of IRE/protein binding by iron sources or iron chelator, in words [2]: concentration-dependent inhibition of binding
